Test results reported in the NIST ThermoML archive (doi:10.1021/je301294a).
Numbers after ± are expanded uncertainties.

Details: Liquid, Closed cell (Static) method

vapor or sublimation pressure (373.15 K) [kPa]	vapor or sublimation pressure (383.15 K) [kPa]	vapor or sublimation pressure (393.15 K) [kPa]	vapor or sublimation pressure (403.15 K) [kPa]	vapor or sublimation pressure (413.15 K) [kPa]	vapor or sublimation pressure (423.15 K) [kPa]	vapor or sublimation pressure (433.15 K) [kPa]	vapor or sublimation pressure (443.15 K) [kPa]	vapor or sublimation pressure (453.15 K) [kPa]	SMILES
11.35 ± 0.24	16.69 ± 0.14	23.94 ± 0.19	33.59 ± 0.27	46.18 ± 0.37	62.32 ± 0.49	82.69 ± 0.65	108.02 ± 0.85	139.11 ± 1.1	CCCCCC(=O)OCC [ethyl hexanoate]
0.444 ± 0.028	0.7516 ± 0.02	1.23 ± 0.031	1.954 ± 0.044	3.017 ± 0.065	4.543 ± 0.096	6.684 ± 0.14	9.627 ± 0.2	13.6 ± 0.1	CCCCCCCCCCCCCC [tetradecane]
0.0326 ± 0.0025	0.0623 ± 0.0044	0.1143 ± 0.0078	0.2019 ± 0.013	0.3448 ± 0.022	0.5712 ± 0.036	0.9198 ± 0.024	1.443 ± 0.021	2.211 ± 0.025	CCCCCCCCCCCCCC(=O)OCC [ethyl tetradecanoate]
0.5827 ± 0.036	0.9771 ± 0.025	1.586 ± 0.021	2.498 ± 0.027	3.829 ± 0.035	5.726 ± 0.048	8.371 ± 0.066	11.99 ± 0.091	16.84 ± 0.12	CCCCCCCCCC(=O)OCC [ethyl decanoate]
